From patent EP2050747A1, “Dimers of harmol or of its derivatives and uses thereof” (BioAlliance Pharma, priority 2007, dated 2009)

Legend:
NIH 3T3 EF [1] = test: MTT assay (cellular viability); assay type: cell-based; conditions: Mus musculus, NIH3T3, 72 h, 3 days
Description: (§1) Growth studies were performed using the [3-(4,5 dimethylthiazol-2-yl)-2,5-diphenyl-2H-tetrazolium bromide] (Sigma) colorimetric assay.
(§2) About 1500 cells were seeded in a 96-well culture plate 24 hours before adding increasing concentrations of tested molecule. The plate was incubated at 37°C for 3 days. 10 µl MTT stock solution (5 mg/ml in phosphate buffer saline) was added to 90 µl of complete medium in each well, the incubation was continued for 3 h at 37°C. 100 µl of lysis buffer (10 % sodium dodecyl sulfate, 1% HCl 1N; pH 4.7) was added to each well, and the plate was incubated overnight. The absorbance was determined using an Integrated EIA Management System (Labsystem) at a wavelength of 570 nm. The proliferation rates were calculated from the OD readings using the untreated cells as 100%.

B16F10 [2] = test: MTT assay (cellular viability); assay type: cell-based, Murine; conditions: Mus musculus, B16-F10, 72 h; B16F10, 3 days
Description: as §1, §2

NIH 3T3 EF [3] = test: Cloning assay, colony formation in semi solid medium (methylcellulose); assay type: cell-based
Description: (§3) Cells were embedded in complete culture medium supplemented with 0,8% methylcellulose (Methocel MC4000, Sigma), seeded in triplicate into 35-mm dishes (Greiner Bio-one Ref 627102, Dominique Dutscher) and incubated at 37 °C in a humidified 5% CO2 atmosphere.
(§4) The number of cells seeded was 1000 cells per dish. After one week (B16F10 cell line) to 3 weeks (NIH 3T3 EF cell line), macroscopic clones were counted.

B16F10 [4] = test: as above; assay type: cell-based, Murine
Description: as §3, §4

[5] = test system: malignant NIH 3T3 EF cells; test: Wound healing assay (cell motility); assay type: cell-based
Description: (§5) Harmol dimers have been tested in a cell motility assay: the behaviour of tumoral cells treated by these dimers was compared with non-treated tumoral cells in a wound healing assay. Wound healing assay was performed to evaluate the effect of tested molecules on motility of malignant NIH 3T3 EF cells and melanoma cell line B16F10. About 100 000-200 000 cells were seeded in a 6-well culture plate and the tested molecule was added 24 hours later. Cells were grown for 3 days to confluence about 90-95% and small scratch-wounds (1 mm width) were made with a pipette tip. Cell debris were removed, then the cultures were incubated in complete medium for 10 h in the presence of the same concentration of the tested molecule. Then, the cells were fixed for 10 min in PBS containing 3.7% formaldehyde at 4°C.

[6] = test system: melanoma cell line B16F10; test: Wound healing assay (cell motility); assay type: cell-based, Murine; conditions: B16F10, non cytotoxic concentration (25-100 nM), 24 h after wound formation, Figure 6
Description: as §5, with “Cell debris were removed, then the cultures were incubated in complete medium for 10 h in the presence of the same concentration of the tested molecule.” left out

B16F10 tumor = test: In vivo tumorigenicity assay, subcutaneous B16F10 tumor growth; parameters: species or system C57BU6 mice
Description: Female 6-8 week-old C57BU6 mice were provided by Harlan (Gannat, France).
Animals were housed in air-conditioned atmosphere, given food and water in standard conditions. One million B16F10 cells in 0.1 ml PBS were injected subcutaneously into the right flank of mice. Seven days after cells inoculation, it was possible to measure tumor volume (day 0). Thereafter, before drug administration, female C57BU6 mice were randomized to form 2 groups. […]
B16F10 tumor development was monitored for 2 weeks. The tumor size was estimated every fourth day by measuring the diameters of the tumors in two perpendicular dimensions using callipers. The volume of tumor (V) was calculated using the formula, V = 2W(U2)2 , where L and W were respectively the length and the width of tumor.
In vivo tumorigenicity assay was studied with harmine. […] In parallel, control mice were treated by one daily oral route administration of the vehicle.

F-actin = test: Actin dynamics, fluorescence anisotropy assay in tumor cell cytosolic fraction; assay type: biochemical; parameters: Kobs: unit not given beside the values; conditions: for F actin steady state value (Δ mA max), effect in words / F actin elongation rate constant (Kobs), effect in words: added to assay medium, versus untreated; for F actin steady state value (Δ mA max), effect in words: NIH 3T3 EF cytosolic fraction or lysate, harmol at 10 µM
Description: Actin dynamics have been quantified in tumor cell cytosolic fraction using the fluorescence anisotropy assay which gains access to rate constant of F-actin elongation (kobs) and steady state concentration of F-actin (Δ mA max).
All reactions were carried out at 22°C and fluorescence anisotropy signal was recovered at 520 nm with excitation at 490 nm in a Beacon 2000 (Panvera). Alexa 488 actin (Molecular Probes) was centrifuged at 35 000 rpm for 2 h at 4°C to sediment residual actin polymers in a Beckman L5-50B ultracentrifuge. […] 80% of the supernatant was withdrawn; the concentration was defined through fluorescence measurements (excitation at 490 nm and signal recovering at 520 nm). The ultracentrifuged actin concentration was calculated using the non ultracentrifuged Alexa 488 actin as a standard. The supernatant was aliquoted, frozen in liquid nitrogen and stored at -80°C.
Before experiment, an aliquot of ultracentrifuged Alexa 488 actin was diluted to a concentration of 1 mg/ml in G buffer (5 mM Tris pH 8.1, 2 mM CaCl2, 0.2 mM DTT, 0.2 mM ATP). 3 µl of diluted Alexa 488 actin was mixed in 168 µl of G buffer and actin monomers anisotropy was measured before the addition of 4 µl of polymerisation buffer (2.5 M KCI, 50 mM MgCl2, 25 mM ATP), 5 µl of G buffer in the presence or in the absence of the chemical molecule and 20 µl cellular extract of normal NIH 3T3 cells or malignant NIH 3T3 EF cells at 2 mg/ml. The final concentration of Alexa 488 actin was 4 nM. The ratio of unlabelled to labelled actin was about 140/4 nM. Measurements were made each 10 sec for 200 sec. Actin monomers anisotropy value was subtracted, yielding the anisotropy enhancement (Δ mA). The data were fitted with the equation Y= Ymax . [1- exp(- K.X)]. The curves start at zero and ascend to Ymax that corresponds to the steady state anisotropy value (Δ mA eq), with a rate constant K. Y is anisotropy values of which monomers anisotropy is substracted and X is the time (Assessment of cellular actin dynamics by measurement of fluorescence anisotropy. Anal Biochem. 2007 Aug 1;367(1):95-103. Epub 2007 Apr 5. Spitz et al.).

NIH 3T3 EF cells = test: Rescue of F-actin network, FITC-phalloidin fluorescence microscopy; assay type: cell-based
Description: Malignant NIH 3T3 EF cells were seeded onto glass cover slips at a density of 2000 cells per cm^2. The next day, tested molecules were applied to NIH 3T3 EF cells at various non cytotoxic concentrations. Three days later, cells were fixed for 10 min in PBS containing 3.7 % formaldehyde at 4°C before examination with a fluorescence microscope. The formaldehyde solution was neutralized with 50 mM NH4Cl. Permeabilisation was carried out for 4 min with 0.4% Triton X-100 in PBS. Cells were incubated for 1 h at room temperature with blocking buffer (3% bovine serum albumin in PBS) and then for 1 h with FITC-phalloidin (Sigma) which stabilizes structures by inhibiting phosphate release from ADP-Pi-actin filaments and allows visualization of actin filaments by fluorescence microscopy. The cover slips were mounted on microscope slides using a solution of glycerol 50%, DABCO 2.5% in PBS as embedding medium.

monoamine oxydase = conditions: cited from earlier work
[7] = test system: cyclin-dependent kinases (CDKs); conditions: cited from earlier work
human tumor cell lines = conditions: cited from earlier work

Cc1nccc2c1[nH]c1cc(OCCCCCOc3ccc4c(c3)[nH]c3c(C)nccc34)ccc12 [BA016DD1172, 7,7'-[Pentane-1,5-diylbis(oxy)]bis(1-methyl-9H-β-carboline)]
IC50 (NIH 3T3 EF [1]): 300 nM
IC50 (B16F10 [2]): 400 nM
inhibitory activity on NIH 3T3 EF colony formation in methylcellulose semi-solid medium (NIH 3T3 EF [3]; Figure 2): marked inhibitory activity
IC50 (NIH 3T3 EF [3]; Mus musculus, NIH3T3, 504 h, NIH 3T3 EF, 3 weeks, read-out: Inhibition of colony formation (methylcellulose) IC50): 50 nM
inhibitory activity on B16F10 colony formation in methylcellulose semi-solid medium (B16F10 [4]; Figure 3): marked inhibitory activity
IC50 (B16F10 [4]; Mus musculus, B16-F10, 168 h, B16F10, one week, read-out: Inhibition of colony formation (methylcellulose) IC50): 30 nM
inhibition of malignant cell motility ([5]; NIH 3T3 EF, non cytotoxic concentration (25-100 nM), 10 h after wound formation, Figure 5): inhibited
inhibition of malignant cell motility [6]: inhibited
antitumor activity against B16 melanoma (B16F10 tumor; daily per os 100 mg/kg for five days, Figure 7): marked antitumor activity
tumoral growth inhibition (B16F10 tumor; day 7, daily per os 100 mg/kg for five days, versus control group, p = 0,0020): 48,5%
Kobs (F-actin; 10 µM, NIH 3T3 EF extract, rate constant of F-actin elongation): 0,179
Δ mA max (F-actin; 10 µM, NIH 3T3 EF extract, steady state concentration of F-actin (anisotropy enhancement)): 62
actin polymerisation kinetics compared with normal NIH 3T3 cytosolic fraction (F-actin; 10 µM, tumoral NIH 3T3 EF cytosolic fraction): similar
F actin steady state value (Δ mA max), effect in words (F-actin): increased
F actin elongation rate constant (Kobs), effect in words (F-actin; NIH 3T3 EF cytosolic fraction): increased
reorganisation of the actin network in tumor cells (NIH 3T3 EF cells; non cytotoxic concentration (100 nM), three days, Figure 4): able to reorganise the actin network

COc1ccc2c(c1)[nH]c1c(C)nccc12 [harmine, reference compound]
monoamine oxydase inhibition (monoamine oxydase): monoamine oxydase inhibitor
concentration at which inhibition of NIH 3T3 EF colony formation was observed (NIH 3T3 EF [3]; in words): micromolar concentration
concentration at which inhibition of B16F10 colony formation was observed (B16F10 [4]): about 1 µM
inhibition of migration compared with the harmol dimers ([5]; NIH 3T3 EF cells, 5 µM): lower inhibition of migration
tumoral growth inhibition (B16F10 tumor; daily per os 100 mg/kg (2 x 50 mg/kg) for 15 days): Any tumoral growth inhibition
tumoral growth inhibition (B16F10 tumor; daily per os 200 mg/Kg (2 x 100 mg/kg) for 15 days): Any tumoral growth inhibition
F actin elongation rate constant compared with NIH 3T3 cytosolic fraction (F-actin; NIH 3T3 EF cytosolic fraction, BA016FZ527 at 10 µM, harmine concentration not given): lower
F actin steady state value (Δ mA max), effect in words (F-actin): increase
F actin elongation rate constant (Kobs), effect in words (F-actin; NIH 3T3 EF cytosolic fraction): increase
inhibition of cyclin-dependent kinases (CDKs) [7]: selective inhibitor
modification in actin cytoskeleton network (NIH 3T3 EF cells; compared with the concentrations used in harmol dimers test): higher concentrations
cytotoxicity against human tumor cell lines (human tumor cell lines): strong cytotoxicity
